The series in a line: Tolerability of high, cumulative doses in asthmatic patients on maintenance treatment with the combination (double blind clinical comparison study). As to conditions: 10 puffs cumulative dose in addition to morning maintenance dose (2 puffs), assessed over 12 hours after dosing, vs placebo / comparator.

Experimental: A study is performed to evaluate the tolerability of high, cumulative doses of the combination formoterol/beclometasone dipropionate or formoterol compared to a placebo when administered in asthmatic patients on regular treatment with the combination at the maximum recommended daily dose (6 microgram of formoterol/100 microgram beclometasone dipropionate, 2 puffs bid.: corresponding to a total daily dose of 24 microgram of formoterol and of 400 microgram of beclometasone dipropionate). The study is a double blind clinical comparison study of ten puffs of the pressurized metered dose inhaler solution formulation of the combination of Example 1 (formoterol 6 microgram+beclometasone dipropionate 100 microgram) or formoterol (6 microgram) or placebo during the maintenance treatment of asthma with 2 puffs bid. of the combination formoterol/beclometasone dipropionate of Example 1.
Cumulative doses (10 puffs) are administered on 3 separated days in addition to the morning dose maintenance (2 puffs). The primary endpoint is serum potassium, assessed over a 12 hours period after the cumulative doses.

As for `COc1ccc(CC(C)NCC(O)c2ccc(O)c(NC=O)c2)cc1` (racemic) [Formoterol, (±) N-[2-hydroxy-5-(1-hydroxy-2-((2-(4-methoxyphenyl)-1-methylethyl)amino)ethyl)phenyl]formamide], the serum potassium level result is listed as “significantly greater decrease in serum potassium level than the combination or placebo”. The serum potassium level entry (listed as formoterol) was “significantly greater decrease in serum potassium level than the either the combination or the placebo”.

Values taken from patent US20080261932A1, “METHODS AND COMPOSITIONS FOR THE PREVENTION AND/OR TREATMENT OF AN EX[…] ASTHMA” (Chiesi Farmaceutici S.p.A., priority 2007, published 2008).
